Laboratory results published in patent US20260201008A1, “SECRETIN-DERIVED GLP1R SELECTIVE AGONISTS” (GUBRA A/S, priority 2023, published 2026).
Read-outs that look alike come from different tables or passages of the source. Each block holds one molecule with its values, some of them ahead of it. Numbered stars: 1 amine (or outer) side, 2 acyl side, 3 side chain; on linkers, the order of the positions; unused ones are H or OH. Square brackets hold non-standard residues; d marks the D form. Side chains are listed from the residue outwards. Ends that are not written are not given here. Peptide text beside a SMILES is read from it. * marks the point of attachment. C20 diacid = O=C(O)CCCCCCCCCCCCCCCCCCC(=O)*; γGlu = O=C(O)[C@H](CCC(=O)[*:2])N[*:1]; AEEA = NCCOCCOCC(=O)O; Aib = CC(C)(N)C(=O)O

Columns and labels:
[1] = Fibril formation of crude library peptides (Thioflavin T); format: physicochemical; parameters: key: average ThT fluorescence emission at 480 nm (ex 450 nm), raw units; conditions: Physical stability of peptides
Description: (§1) Peptides were dissolved in buffers (50 mM sodium acetate at pH 4.0, or 50 mM sodium phosphate at pH 7.0) to 267 μM and incubated for 1-2 hours at room temperature. The samples were then divided into two replicates of 80 μl in a black 384 well plate (μ-clear, Greiner Bio-One) and mixed with Thioflavin T (ThT) to a final concentration of 4 μM. The plate was centrifuged for 2 min at 2000 rpm to remove air bubbles, sealed, and placed in a plate reader (CLARIOstar, BMG). Firstly, turbidity of the samples was measured as the absorbance at 600 nm. Secondly, the plate reader temperature was set to 40° C. and the fluorescence was measured every 10 min for 72 hours by exciting the ThT at 450 nm and measuring the emission at 480 nm. Samples were stressed by shaking the plate at 700 rpm (linear) for five minutes before every measurement, and fibril formation was determined as the average emission for each sample.

SCTR = SCTR (Homo sapiens, UniProt P47872); test: hSCTR potency, cAMP accumulation in CHO-K1 cells stably overexpressing hSCTR; format: cell-based; parameters: alternatively Euroscreen ES-712-AF; FAST-0161L; host or cells: CHO-K1; conditions: read-out: pEC50 hSCTR (converted)
Sequence of SCTR (P47872 23-440): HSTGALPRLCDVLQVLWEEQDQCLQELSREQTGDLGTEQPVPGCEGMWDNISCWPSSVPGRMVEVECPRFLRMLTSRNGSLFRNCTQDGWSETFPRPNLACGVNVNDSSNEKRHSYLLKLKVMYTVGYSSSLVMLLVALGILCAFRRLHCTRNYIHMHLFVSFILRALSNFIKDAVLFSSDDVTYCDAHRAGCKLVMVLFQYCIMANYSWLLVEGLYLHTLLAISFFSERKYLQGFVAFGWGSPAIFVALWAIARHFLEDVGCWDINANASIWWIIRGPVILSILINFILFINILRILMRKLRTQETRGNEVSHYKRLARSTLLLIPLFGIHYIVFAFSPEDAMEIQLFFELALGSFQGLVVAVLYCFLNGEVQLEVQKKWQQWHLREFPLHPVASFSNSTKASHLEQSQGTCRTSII
Description: (§2) Crude library peptides are screened in 10-fold serial dilutions of 5 concentrations, n=1 time. Tip change is done for the first two serial dilutions. Compound starting concentration (top) will be adjusted throughout the study if needed.
(§3) Purified peptides are screened in 3-fold serial dilutions of 11 concentrations, n=2 times. Tip change is done for all serial dilutions. Compound starting concentration (top) will be adjusted throughout the study. If the top concentration is adjusted or a 5-fold difference in calculated EC50 values is observed, n is increased by 1. EC50 values were calculated by nonlinear regression using sigmoid concentration-response with variable slope.
(§4) Frozen division arrested CHO-K1 cells stably overexpressing the hSCTR were obtained from PerkinElmer (ES-712-AF). Alternatively, a CHO-K1 cell line stably overexpressing the hSCTR was obtained from Euroscreen (FAST-0161L), expanded, aliquoted and frozen. An aliquot was thawed and plated in DPBS with 0.05% casein and 0.5 mM IBMX as 2000 cells/well in a 384-well format. The cells were then immediately stimulated for 30 min at room temperature with graded doses of test compound using human secretin (synthesized at Gubra) as a positive control. cAMP accumulation was measured using a Cisbio assay for Gs coupled receptors (cat. no. 62AM4PEC), where the assay reagents were added as per the manufacturer's instructions and time-resolved fluorescence energy transfer recorded after one hour on a CLARIOstar (BMG Labtech) plate reader.

[2] = Turbidity of crude library peptides (absorbance at 600 nm); format: physicochemical; conditions: Physical stability of peptides
Description: as §1

GLP1R = GLP1R (Homo sapiens, UniProt P43220); test: hGLP1R potency, cAMP accumulation in CHO-K1 cells stably overexpressing hGLP1R; format: cell-based; parameters: host or cells: CHO-K1; conditions: for Selectivity: SCTR EC50/GLP1R EC50 ratio; for EC50: read-out: pEC50 hGLPR1 (converted)
Sequence of GLP1R (P43220 24-463): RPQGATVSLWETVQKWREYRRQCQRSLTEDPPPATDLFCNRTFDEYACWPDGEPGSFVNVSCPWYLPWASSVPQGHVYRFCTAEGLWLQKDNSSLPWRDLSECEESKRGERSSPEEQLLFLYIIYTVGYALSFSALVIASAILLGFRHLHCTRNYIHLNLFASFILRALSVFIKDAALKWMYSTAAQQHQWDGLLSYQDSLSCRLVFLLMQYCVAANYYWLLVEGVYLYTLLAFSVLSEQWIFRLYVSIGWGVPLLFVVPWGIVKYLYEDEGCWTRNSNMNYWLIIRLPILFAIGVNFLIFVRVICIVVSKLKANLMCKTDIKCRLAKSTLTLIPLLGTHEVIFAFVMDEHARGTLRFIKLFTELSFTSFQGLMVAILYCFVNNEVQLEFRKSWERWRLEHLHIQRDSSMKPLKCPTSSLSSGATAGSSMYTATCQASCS
Description: as §2, §3
as §4, with “A” for “Frozen division arrested CHO-K1 cells stably overexpressing the hSCTR were obtained from PerkinElmer (ES-712-AF). Alternatively, a”, “hGLP1R” for “hSCTR”, “(FAST-0145L),” for “(FAST-0161L),”, “GLP-1(7-36)” for “secretin”

[3] = target: human secretin receptor (hSCTR) (human, UniProt P47872 23-440); test: cell-based or functional assay
Sequence of human secretin receptor (hSCTR) (P47872 23-440): as the sequence (P47872 23-440) above

[4] = Table 4, position X12 variants of GUB06-046

Fibril formation [1]: 9070 | EC50 (SCTR; cAMP accumulation, CHO-K1 cells overexpressing hSCTR): 1580 nM | Turbidity (pH 7) [2]: 0.08 | Selectivity (GLP1R): 54828 | EC50 (GLP1R; cAMP accumulation, CHO-K1 cells overexpressing hGLP1R): 0.0316 nM
Molecule: CC(C)C[C@H](NC(=O)[C@H](Cc1ccccc1)NC(=O)[C@H](CCCNC(=N)N)NC(=O)[C@H](CCC(N)=O)NC(=O)[C@H](CCC(N)=O)NC(=O)[C@H](C)NC(=O)[C@H](C)NC(=O)[C@H](CCC(=O)O)NC(=O)[C@H](CCC(=O)O)NC(=O)[C@H](CCCCNC(=O)COCCOCCNC(=O)COCCOCCNC(=O)CC[C@H](NC(=O)CCCCCCCCCCCCCCCCCCC(=O)O)C(=O)O)NC(=O)[C@H](CC(C)C)NC(=O)[C@H](Cc1ccccc1)NC(=O)[C@H](CO)NC(=O)[C@@H](NC(=O)[C@H](CC(=O)O)NC(=O)[C@H](CO)NC(=O)[C@@H](NC(=O)[C@H](Cc1ccccc1)NC(=O)[C@@H](NC(=O)CNC(=O)[C@H](CCC(=O)O)NC(=O)C(C)(C)NC(=O)[C@@H](N)Cc1c[nH]cn1)[C@@H](C)O)[C@@H](C)O)C(C)C)C(=O)N[C@@H](CCC(=O)O)C(=O)N[C@@H](Cc1c[nH]cn1)C(=O)N[C@@H](CC(C)C)C(=O)N[C@H](C(N)=O)C(C)C [compound 83] (H-H[Aib]EGTFTSDVSFLK([AEEA-AEEA-γGlu-C20 diacid])EEAAQQRFLEHLV-NH2)

Molecule: 216 (GUB06-046) (H[Aib]EGTFTSDLSRLLEGAALQRFIQWLV-NH2; N-terminus assumed; SMILES CC[C@H](C)[C@H](NC(=O)[C@H](Cc1ccccc1)NC(=O)[C@H](CCCNC(=N)N)NC(=O)[C@H](CCC(N)=O)NC(=O)[C@H](CC(C)C)NC(=O)[C@H](C)NC(=O)[C@H](C)NC(=O)CNC(=O)[C@H](CCC(=O)O)NC(=O)[C@H](CC(C)C)NC(=O)[C@H](CC(C)C)NC(=O)[C@H](CCCNC(=N)N)NC(=O)[C@H](CO)NC(=O)[C@H](CC(C)C)NC(=O)[C@H](CC(=O)O)NC(=O)[C@H](CO)NC(=O)[C@@H](NC(=O)[C@H](Cc1ccccc1)NC(=O)[C@@H](NC(=O)CNC(=O)[C@H](CCC(=O)O)NC(=O)C(C)(C)NC(=O)[C@@H](N)Cc1c[nH]cn1)[C@@H](C)O)[C@@H](C)O)C(=O)N[C@@H](CCC(N)=O)C(=O)N[C@@H](Cc1c[nH]c2ccccc12)C(=O)N[C@@H](CC(C)C)C(=O)N[C@H](C(N)=O)C(C)C)
Fibril formation [1]: 11040 | Turbidity (pH 7) [2]: 0.48

Fibril formation [1]: 3949 | Turbidity (pH 7) [2]: 0.08 | SCTR EC50/GLP1R EC50 ratio (GLP1R; selectivity for hGLP1R over hSCTR, cAMP accumulation in CHO-K1 cells): 2941711
Molecule: CC(C)C[C@H](NC(=O)[C@H](Cc1ccccc1)NC(=O)[C@H](CCCNC(=N)N)NC(=O)[C@H](CCC(N)=O)NC(=O)[C@H](CC(C)C)NC(=O)C(C)(C)NC(=O)[C@H](C)NC(=O)[C@H](CCC(=O)O)NC(=O)[C@H](CCC(=O)O)NC(=O)[C@H](CCCCNC(=O)COCCOCCNC(=O)COCCOCCNC(=O)CC[C@H](NC(=O)CCCCCCCCCCCCCCCCCCC(=O)O)C(=O)O)NC(=O)[C@H](CC(C)C)NC(=O)[C@H](Cc1ccc(O)cc1)NC(=O)[C@H](CO)NC(=O)[C@@H](NC(=O)[C@H](CC(=O)O)NC(=O)[C@H](CO)NC(=O)[C@@H](NC(=O)[C@H](Cc1ccccc1)NC(=O)[C@@H](NC(=O)CNC(=O)[C@H](CCC(N)=O)NC(=O)C(C)(C)NC(=O)[C@@H](N)Cc1c[nH]cn1)[C@@H](C)O)[C@@H](C)O)C(C)C)C(=O)N[C@@H](CCC(=O)O)C(=O)N[C@@H](Cc1c[nH]cn1)C(=O)N[C@@H](CC(C)C)C(=O)N[C@H](C(N)=O)C(C)C [compound 156] (H-H[Aib]QGTFTSDVSYLK([AEEA-AEEA-γGlu-C20 diacid])EEA[Aib]LQRFLEHLV-NH2)

EC50 (SCTR; [4]): 1.26 nM | Selectivity (GLP1R; [4]): 43 | EC50 (GLP1R; [4]): 0.0316 nM
Molecule: CC[C@H](C)[C@H](NC(=O)[C@H](Cc1ccccc1)NC(=O)[C@H](CCCNC(=N)N)NC(=O)[C@H](CCC(N)=O)NC(=O)[C@H](CC(C)C)NC(=O)[C@H](C)NC(=O)[C@H](C)NC(=O)CNC(=O)[C@H](CCC(=O)O)NC(=O)[C@H](CC(C)C)NC(=O)[C@H](CC(C)C)NC(=O)[C@@H](NC(=O)[C@H](CO)NC(=O)[C@H](CC(C)C)NC(=O)[C@H](CC(=O)O)NC(=O)[C@H](CO)NC(=O)[C@@H](NC(=O)[C@H](Cc1ccccc1)NC(=O)[C@@H](NC(=O)CNC(=O)[C@H](CCC(=O)O)NC(=O)C(C)(C)NC(=O)[C@@H](N)Cc1c[nH]cn1)[C@@H](C)O)[C@@H](C)O)C(C)C)C(=O)N[C@@H](CCC(N)=O)C(=O)N[C@@H](Cc1c[nH]c2ccccc12)C(=O)N[C@@H](CC(C)C)C(=O)N[C@H](C(N)=O)C(C)C [compound 227] (H-H[Aib]EGTFTSDLSVLLEGAALQRFIQWLV-NH2)

pEC50 hSCTR [3]: 8.2 -log M
B1: SEQ ID NO: 186 (peptide)
peptide: H[Aib]EGTFTSDWSRLLEGAALQRFIQWLV-NH2
modifications: N-terminus assumed
SMILES: CC[C@H](C)[C@H](NC(=O)[C@H](Cc1ccccc1)NC(=O)[C@H](CCCNC(=N)N)NC(=O)[C@H](CCC(N)=O)NC(=O)[C@H](CC(C)C)NC(=O)[C@H](C)NC(=O)[C@H](C)NC(=O)CNC(=O)[C@H](CCC(=O)O)NC(=O)[C@H](CC(C)C)NC(=O)[C@H](CC(C)C)NC(=O)[C@H](CCCNC(=N)N)NC(=O)[C@H](CO)NC(=O)[C@H](Cc1c[nH]c2ccccc12)NC(=O)[C@H](CC(=O)O)NC(=O)[C@H](CO)NC(=O)[C@@H](NC(=O)[C@H](Cc1ccccc1)NC(=O)[C@@H](NC(=O)CNC(=O)[C@H](CCC(=O)O)NC(=O)C(C)(C)NC(=O)[C@@H](N)Cc1c[nH]cn1)[C@@H](C)O)[C@@H](C)O)C(=O)N[C@@H](CCC(N)=O)C(=O)N[C@@H](Cc1c[nH]c2ccccc12)C(=O)N[C@@H](CC(C)C)C(=O)N[C@H](C(N)=O)C(C)C

pEC50 hSCTR [3]: 8.8 -log M
B2: SEQ ID NO: 194 (peptide)
peptide: H[Aib]EGTFTSDYSRLLEGAALQRFIQWLV-NH2
modifications: N-terminus assumed
SMILES: CC[C@H](C)[C@H](NC(=O)[C@H](Cc1ccccc1)NC(=O)[C@H](CCCNC(=N)N)NC(=O)[C@H](CCC(N)=O)NC(=O)[C@H](CC(C)C)NC(=O)[C@H](C)NC(=O)[C@H](C)NC(=O)CNC(=O)[C@H](CCC(=O)O)NC(=O)[C@H](CC(C)C)NC(=O)[C@H](CC(C)C)NC(=O)[C@H](CCCNC(=N)N)NC(=O)[C@H](CO)NC(=O)[C@H](Cc1ccc(O)cc1)NC(=O)[C@H](CC(=O)O)NC(=O)[C@H](CO)NC(=O)[C@@H](NC(=O)[C@H](Cc1ccccc1)NC(=O)[C@@H](NC(=O)CNC(=O)[C@H](CCC(=O)O)NC(=O)C(C)(C)NC(=O)[C@@H](N)Cc1c[nH]cn1)[C@@H](C)O)[C@@H](C)O)C(=O)N[C@@H](CCC(N)=O)C(=O)N[C@@H](Cc1c[nH]c2ccccc12)C(=O)N[C@@H](CC(C)C)C(=O)N[C@H](C(N)=O)C(C)C
